Results from US9545385B2, “Inhibitors of hemeprotein-catalyzed lipid peroxidation” (VANDERBILT UNIVERSITY, priority 2013, dated 2017).

How the values were obtained:
[1] = test system: rat model of rhabdomyolysis; assay: Rat model of rhabdomyolysis (myoglobin-catalyzed lipid peroxidation, renal failure); assay type: in vivo; conditions: dose giving plasma levels in the human therapeutic range
[2] = Direct cellular toxicity (total cellular ATP levels); assay type: cell-based; conditions: human, HepG2 cells, read-out: Cellular Toxicity (EC50, μM ± SD)
Text: Values represent means±S.E.M.

PGHS-2 (COX-2) = target: T1, PGHS-2 (COX-2) (Homo sapiens, UniProt P35354); assay: Inhibition of hematin-reconstituted COX-2, [14C] arachidonic acid oxidation; assay type: biochemical; conditions: compared with PGHS-1
T1 sequence (P35354 18-604): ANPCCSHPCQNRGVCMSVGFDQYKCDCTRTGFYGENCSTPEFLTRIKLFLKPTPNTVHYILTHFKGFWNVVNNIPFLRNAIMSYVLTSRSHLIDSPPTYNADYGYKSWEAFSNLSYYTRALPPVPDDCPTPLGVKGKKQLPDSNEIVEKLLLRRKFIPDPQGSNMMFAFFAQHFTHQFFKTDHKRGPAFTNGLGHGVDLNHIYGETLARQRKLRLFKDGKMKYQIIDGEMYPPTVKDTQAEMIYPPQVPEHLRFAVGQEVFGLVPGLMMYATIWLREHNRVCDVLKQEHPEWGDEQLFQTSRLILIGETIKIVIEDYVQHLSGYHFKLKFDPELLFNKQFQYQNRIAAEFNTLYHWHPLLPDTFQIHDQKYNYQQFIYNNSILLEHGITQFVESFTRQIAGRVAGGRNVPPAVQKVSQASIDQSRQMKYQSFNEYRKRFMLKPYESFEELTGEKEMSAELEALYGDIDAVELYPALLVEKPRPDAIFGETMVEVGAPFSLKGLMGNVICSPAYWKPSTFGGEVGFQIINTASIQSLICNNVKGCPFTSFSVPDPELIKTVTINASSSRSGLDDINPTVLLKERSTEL
Experimental: Hematin-reconstituted COX-1 (5.4 nM) or COX-2 (10.8 nM) in Tris HCl 100 mM, pH 8.0, 500 μM phenol, was pre-incubated with N-dimethyl pyrimidinol (DM, plain line) or N-dimethyl pyridinol (DR, dashed line) at varying concentrations at 37° C. for 20 minutes. At this time the reaction was initiated by addition of 0.5 μM of [14C] arachidonic acid. After 8 seconds, the reaction was stopped by adding an ice cold mixture of diethyl ether/methanol/4.0 M citric acid. PGHS-1 activity was expressed as percent oxidation of arachidonic acid compared with control where no inhibitor was added. Each data point represents the mean±S.E.M of six values.

myoglobin (Mb) = target: T2, myoglobin (Mb) (Homo sapiens, UniProt P02144); assay: Inhibition of myoglobin-induced oxidation of arachidonic acid; assay type: biochemical; conditions: among ApAP and analogs 12-14
T2 sequence (P02144 1-154): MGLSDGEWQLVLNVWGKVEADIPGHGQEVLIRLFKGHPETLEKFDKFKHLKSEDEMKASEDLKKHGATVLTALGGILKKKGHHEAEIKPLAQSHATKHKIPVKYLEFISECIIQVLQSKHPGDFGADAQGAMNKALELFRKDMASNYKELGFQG
Experimental: (§1) The inhibition of the lipid peroxidation produced by myoglobin (Mb) and COX-1 by the different analogs was tested. Values represent the IC50 for each hemeprotein and are expressed as means±S.E.M. a: value reported from (1.). b: value reported from (3).

COX-1 = COX-1 (Homo sapiens, UniProt P23219); assay: Inhibition of COX-1-catalyzed oxidation of arachidonic acid (Example 6); assay type: biochemical
Experimental: as §1

Microsomal stability = conditions: % of unmodified compound remaining after reaction; human liver microsomes
[3] = Antioxidant rate constant kinh in chemical tests, relative to α-TOH
Text: Antioxidants, most commonly substituted phenols, effectively intercept peroxyls by transferring the phenolic H-atom to a propagating peroxyl radical, with a rate constant kinh that is faster than that of chain propagation. The most famous example of a phenolic antioxidant is vitamin E (α-toco-pherol, α-TOH) nature's hydrophobic defense against radical chain oxidation.
Compounds of the present invention have a higher kinh and serve as better antioxidants than α-TOH in chemical tests. The critical antioxidant step is shown in Equation 1, the larger the kinh, the better the antioxidant. The simple pyridinol 2a shown below is nearly 5 times better than α-TOH as an antioxidant and the bicyclic compounds 3a and 4a are over 20 times better than the vitamin. […]

ferryl myoglobin = target: T3, ferryl myoglobin (Homo sapiens, UniProt P02144); assay: Reduction of ferryl myoglobin to ferric myoglobin; assay type: biochemical; conditions: compared with acetaminophen
T3 sequence (P02144 1-154): T2 sequence (P02144 1-154)
Experimental: Ferryl myoglobin was generated by incubating ferric myoglobin 10 μM in PBS with 10 μM hydrogen peroxide until there was no more change in the peak at 421 nm. At this time, the analogs were added to the cuvette at the final concentrations indicated and spectra were recorded every 15 sec for 2 min. The initial rate of reduction was calculated as the variation of absorbance at 409 nm in the first two minutes after adding the analogs. In this period of time the rates of reduction were linear for each concentration of analog.

HepG2 liver cell line = test system: HepG2 liver cell line
Experimental: HepG2 were plated in multiple 96-well plates at 2×10^4 cells per well and pretreated with ethanol 100 μM for 2 hours. […] Cell viability after 24 h was determined by measuring ATP levels by luminescence assay.

Sequence of COX-1 (P23219 24-599, species assumed): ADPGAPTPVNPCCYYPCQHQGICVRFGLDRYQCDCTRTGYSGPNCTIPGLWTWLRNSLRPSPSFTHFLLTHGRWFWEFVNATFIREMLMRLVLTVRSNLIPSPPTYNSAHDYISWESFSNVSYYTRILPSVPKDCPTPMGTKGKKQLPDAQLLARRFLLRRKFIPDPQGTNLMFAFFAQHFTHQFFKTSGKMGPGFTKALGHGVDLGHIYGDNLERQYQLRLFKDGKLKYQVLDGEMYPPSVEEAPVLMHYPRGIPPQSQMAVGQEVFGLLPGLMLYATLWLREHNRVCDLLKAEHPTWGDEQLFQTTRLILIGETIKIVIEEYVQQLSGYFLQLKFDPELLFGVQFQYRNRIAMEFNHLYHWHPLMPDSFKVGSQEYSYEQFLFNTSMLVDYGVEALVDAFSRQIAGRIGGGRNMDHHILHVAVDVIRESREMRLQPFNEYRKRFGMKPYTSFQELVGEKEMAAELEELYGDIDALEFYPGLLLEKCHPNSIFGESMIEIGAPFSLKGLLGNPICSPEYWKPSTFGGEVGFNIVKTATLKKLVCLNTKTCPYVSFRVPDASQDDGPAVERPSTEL

SMILES: CC(=O)Nc1ccc(O)cc1 [ApAP, acetaminophen]
- lipid peroxidation in rhabdomyolysis model ([1]; listed as Acetaminophen): blocked lipid peroxidation
- renal failure in rhabdomyolysis model ([1]; listed as Acetaminophen): prevented the renal failure
- lipid peroxidation in rhabdomyolysis model ([1]; listed as acetaminophen): blocks
- renal failure in rhabdomyolysis model ([1]; listed as acetaminophen): blocks
- EC50 at 24 h [2]: 594 ± 147 µM

SMILES: CN(C)c1ccc(O)cn1 [DM-Pyr, 6-(dimethylamino) pyridin-3-ol]
- inhibition of PGHS-2 (COX-2), in words (PGHS-2 (COX-2)): only a weak inhibitor

SMILES: Cc1nc2c(c(C)c1O)COC(=O)N2 [Analog 14]
- EC50 at 24 h [2]: > 5000 µM
- rank in inhibiting myoglobin-induced arachidonic oxidation (myoglobin (Mb)): least potent
- rank in inhibiting COX-1 activity (COX-1; among ApAP and analogs 12-14): most potent
- Microsomal stability % left (Microsomal stability): 97 ± 3%

SMILES: Cc1cc(N(C)C)nc(C)c1O [Analog 2a]
- antioxidant potency, times better than α-TOH [3]: ~5 times

SMILES: CN(C)c1ncc(O)cn1 [DM-Pym, 2-(dimethylamino)pyrimidin-5-ol]
- potency in reducing ferryl myoglobin (ferryl myoglobin): remarkably more potent than acetaminophen
- cytotoxicity in ethanol-induced HepG2 model (HepG2 liver cell line): does not cause cytotoxicity

SMILES: O=C1NCc2cc(O)cnc2N1 [Analog 12]
- EC50 at 24 h [2]: 4760 ± 36 µM
- Microsomal stability % left (Microsomal stability): 158 ± 33%

SMILES: Cc1nc2c(c(C)c1O)CNC(=O)N2 [Analog 13]
- EC50 at 24 h [2]: 2960 ± 284 µM
- inhibition of COX-1, in words (COX-1; at concentrations up to 1 mM): not able to significantly inhibit
- Microsomal stability % left (Microsomal stability): 87 ± 7%
